79 compounds from the METLIN SMRT retention time set (Domingo-Almenara et al. 2019) can be followed below.

A short description of the data set: gradient 5% acetonitrile 3 min, to 50% in 2 min, to 85% in 15 min, held 3 min, 100 µL/min. The following applies: column: Zorbax Extend-C18 2.1 x 50 mm; eluents: water / acetonitrile, 0.1% formic acid. The procedure, abridged: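 A Zorbax Extend-C18 column (2.1 × 50 mm, 1.8 μm) run at 100 μL/min with water and acetonitrile, both containing 0.1% formic acid, separated mixtures of ~100 pure standards. The HPLC was coupled to a quadrupole time-of-flight mass spectrometer operated in positive and negative ionization mode, with dead and dwell volumes of 40 μL and 900 μL. Each retention time was taken from a computationally picked adduct peak that was then manually inspected.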
In turn, `COc1ccc(C(=O)N2C[C@@H]3C[C@H](NC(=O)c4cccs4)[C@H]2C3)c(OC)c1` showed an RP-LC retention time of 701 s.
The same measure for `Cc1ccc(-n2c(C)c(C)c3c(=O)n(CC(=O)N4CCc5ccccc54)cnc32)cc1`: 1040 s.
`Cc1oc(C2CCN(C(=O)Nc3ccc(F)cc3)CC2)nc1C(=O)N1CCCC1` showed an RP-LC retention time of 752 s.
Then `CCNC(=O)C1CCN(S(=O)(=O)c2cc(C(=O)N(C)C)cs2)CC1`, with 624 s; and `O=C(Nc1ccc(F)cc1)C1CCCN(c2ccc3cc(S(=O)(=O)N4CCCC4)ccc3n2)C1` (centres undefined), with 634 s; and `COCCCNCc1c(C(=O)O)c(C)n(Cc2ccc(Cl)cc2)c1C`, with 672 s.
Then `Cc1nc(CC(=O)Nc2ccc(F)cc2C)cs1`, with 737 s; and `CCN1CCC2(CC1)CC(c1nnc(C)o1)N(CCc1ccccc1)C2` (centres undefined), with 550 s.
With `COC(=O)c1cccc(NC(=O)N2C[C@@H]3C[C@H]2C[C@@H]3NC(=O)c2ccccc2)c1`, the RP-LC retention time was determined as 736 s.
The same measure for `CCOc1cc(-c2cccc(Cl)c2)nc2ccc(NC(=O)c3ccco3)cc12`: 830 s.
Then `COc1ccc(NC(=O)C2CCN(c3cc(N4CCCCC4)ncn3)CC2)cc1OC`, with 645 s.
`CCn1cnc2c1CN(S(=O)(=O)c1cccc(C#N)c1)CC2`: the RP-LC retention time stood at 590 s.
The same measure for `COc1ccc(CNC(=O)Cn2cc(-c3nnc(C)o3)ccc2=O)cc1`: 635 s; for `CC1(C(=O)NC2CCCCCCC2)CN(S(C)(=O)=O)CC(=O)N1c1ccc(F)cc1` (centres undefined): 884 s.
The same measure for `O=C(NC1CCCN(c2cc(-c3ccccc3)[nH]n2)C1)c1ccc2[nH]ccc2c1` (centres undefined): 729 s.
The same measure for `CC(C)NC(=O)C1CC(=O)N(C2CCCCC2)C1` (centres undefined): 657 s; for `CCC(C)C(NC(=O)c1cccc(Cl)c1)C(=O)Nc1nc2ccccc2[nH]1` (centres undefined): 750 s; for `CSc1ncccc1C(=O)N(Cc1cccs1)Cc1cccn1C`: 904 s.
`COc1ccc(-c2noc(C3CCCN3C(=O)Nc3ccc(C)cc3)n2)cc1` (centres undefined): the RP-LC retention time was found to be 830 s.
The same measure for `Cc1ccc(-n2ccc(=O)c(-c3nc(-c4ccc(F)c(Br)c4)no3)n2)cc1`: 1080 s; for `CS(=O)(=O)N1CCCc2cc(C(=O)N3CCC(C(N)=O)CC3)ccc21`: 604 s.
The same measure for `Cc1cccc(-c2nc(C)c3c(n2)N(Cc2ccco2)C(=O)CC3)c1`: 1110 s; for `NC(=O)[C@@H]1C[C@H](Oc2cccnc2)CN1C(=O)c1cccs1`: 532 s.
Then `Cc1cc(C)n(-c2nc(C)c(C(=O)Nc3ccc(F)cc3)s2)n1`, with 1060 s; and `O=C(NCCCS(=O)(=O)N1CCN(c2ncccn2)CC1)c1ccncc1`, with 568 s; and `CCOC1CCN(C(=O)NC2CCCCC2)CC1`, with 740 s.
With `COc1cccc(N2CCN(c3ccnc(SCC(=O)Nc4cc(Cl)ccc4OC)n3)CC2)c1`, the RP-LC retention time amounted to 964 s.
Then `Cc1ccc(CNS(=O)(=O)c2cc(-c3[nH]ncc3C(=O)N(C)C)oc2C)cc1`, with 712 s; and `COc1cccc(-c2ccc(=O)n(Cc3nc(-c4ccccc4)no3)n2)c1`, with 968 s.
Then `COc1cccc(-c2noc(CN3C(=O)COc4ccc(C)cc43)n2)c1OC`, with 981 s.
The same measure for `CCCCn1nc2ccc(S(=O)(=O)N3CCOCC3)cn2c1=O`: 739 s; for `CC(=O)NCC1CNCC12CCCCC2` (centres undefined): 509 s.
The compound `O=C(Nc1cccc(Cl)c1)N1CCc2[nH]cnc2C1c1ccncc1` (centres undefined) showed an RP-LC retention time of 572 s.
The same measure for `COc1ccc(Cl)cc1S(=O)(=O)N(C)C1CCc2nn(CC3CC3)c(=O)n2CC1` (centres undefined): 958 s; for `O=C(Cc1csc2nc(-c3ccccc3)cn12)NCc1ccc(Br)cc1`: 815 s.
The same measure for `COc1cc(-c2ccccc2)nc2ccc(NC(=O)COc3ccc(F)cc3)cc12`: 776 s.
The same measure for `Cc1oc2c(c1C(=O)NCc1ccc(F)c(F)c1)C1=NC(C)(C)CN1C=N2`: 666 s; for `CCC(CC)C(=O)Nc1cccc(C(=O)Nc2nc(-c3ccccc3)cs2)c1`: 1070 s.
In the case of `Cc1cc(C)c2c(N3CCSCC3)nc(C(=O)NCc3cccs3)nc2n1`, the RP-LC retention time came to 746 s.
The same measure for `Cc1cccc(N2CCN(S(=O)(=O)c3cc4n(c3)CCCN(C(C)C)C4=O)CC2)c1`: 921 s; for `CCn1c(N2CCCC(C(=O)NCc3cccc(OC)c3)C2)cc(=O)n(C)c1=O` (centres undefined): 764 s; for `Cc1ccc(NC(=O)CSC2=C(C#N)C(c3cccs3)CC(=O)N2)cc1Cl` (centres undefined): 915 s.
Then `CCOc1nc2ccccc2nc1N1CCCC(C(=O)N2CCN(c3ccccc3F)CC2)C1` (centres undefined), with 1330 s; and `COc1ccc(C)cc1NC(=O)C1CCN(S(=O)(=O)c2cn(C(C)C)cn2)CC1`, with 810 s; and `COC(=O)CNC(c1ccccc1)c1cc(C)ccc1NS(=O)(=O)c1ccc(C)cc1` (centres undefined), with 904 s.
The same measure for `CN1CCN(S(=O)(=O)c2ccc3nn(Cc4cccc(F)c4)c(=O)n3c2)CC1`: 964 s; for `O=C(N[C@H]1C[C@@H]2C[C@H]1N(C(=O)COc1cccc(Cl)c1)C2)c1ccccc1`: 829 s.
Take `Cc1cc(N2CCCC2)n2nc(CN3CCc4ccccc4C3)nc2n1`: the RP-LC retention time amounted to 598 s.
Then `COc1ccc(OC)c(NC(=O)NCC(=O)N2CCc3ccccc32)c1`, with 804 s; and `CC(C)c1nnc(-c2coc(S(=O)(=O)N3CCCCC3C)c2)o1` (centres undefined), with 904 s.
The same measure for `CCc1ccc(NC(=O)C2CCN(S(C)(=O)=O)c3cc(C)ccc3O2)cc1` (centres undefined): 998 s; for `O=C(Cn1nc(C(=O)N2CCCCC2)c2ccccc21)N1CCN(c2cccc(Cl)c2)CC1`: 1010 s.
The same measure for `CN(C)c1ccc(CNC(=O)C2CCN(S(=O)(=O)c3ccc4[nH]c(=O)ccc4c3)CC2)cc1`: 580 s; for `COC(=O)c1nnn(-c2cc(C)cc(C)c2)c1C(=O)OC`: 949 s; for `CNC(=O)[C@@H]1CN(C(=O)NCc2ccco2)C[C@H]1c1nc(C)no1`: 602 s.
With `Cc1cnn(CC(=O)N2CCCCCCNC(=O)[C@@H]3CCCC[C@@H]32)c1`, the RP-LC retention time is 716 s.
Compound `Cc1ccc(CCNC(=O)c2cc3n(n2)CC(C)(C(=O)NC2CCCCC2)N(C)C3=O)cc1` (centres undefined) came in with an RP-LC retention time of 844 s.
Then `CC(C)n1cc(C2=CCN(S(=O)(=O)c3cccc4cccnc34)CC2)c2cccnc21`, with 993 s; and `CCc1noc(COC2CCCN(C(=O)NCc3ccco3)C2)n1` (centres undefined), with 722 s.
The same measure for `CCC(=O)Nc1ccc(SCc2cc(C)ccc2C)nn1`: 919 s.
Then `COc1ccc(CC(=O)N2C[C@@H]3C[C@H]2C[C@@H]3NC(=O)c2cccs2)cc1Cl`, with 764 s; and `CCN1C(=O)COc2ccc(-c3csc(NC(=O)c4cccs4)n3)cc21`, with 940 s; and `CCCNc1cc(-n2cccn2)ncn1`, with 668 s.
Regarding `COc1ccc2[nH]cc(CCNC(=O)CCc3nnc(C(=O)Nc4ccccc4)s3)c2c1`, the RP-LC retention time amounted to 803 s.
`C=CCN1C(=O)COc2ccc(-c3nc(NC(=O)C(F)(F)F)sc3C)cc21` registered an RP-LC retention time of 932 s.
The same measure for `O=C(NCCc1csc(-c2ccccc2)n1)C1CCN(C(=O)c2ccco2)CC1`: 749 s; for `NS(=O)(=O)c1cccnc1Nc1ccc2c(c1)OCCO2`: 735 s; for `Cc1ccc(-c2ccc(=O)n(Cc3noc(C(=O)NCCN4CCC(C)CC4)n3)n2)cc1`: 677 s.
The same measure for `CCn1c(=O)oc2cc(S(=O)(=O)N3CCN(C(=O)c4ccnn4C)CC3)ccc21`: 687 s; for `Cc1ccc(-n2c(N3CCCC(C(=O)Nc4ccccc4)C3)nc3ccsc3c2=O)cc1` (centres undefined): 966 s; for `O=C([C@@H]1C[C@H](Oc2ccccc2)CN1C(=O)c1n[nH]c2ccccc12)N1CCCC1`: 802 s.
`CCCCN(C)C(=O)Cn1ccn2nc(-c3ccccc3)c(CO)c2c1=O` had an RP-LC retention time of 776 s.
With `CC(C)Cc1cc(-c2nn3c(-c4ccccc4F)nnc3s2)n[nH]1`, the RP-LC retention time came to 915 s.
The same measure for `Cc1cc(C)c(NS(=O)(=O)c2ccc(Cl)c(C(=O)O)c2)c(C)c1`: 829 s.
Then `COc1ccc(NC(=O)Nc2c(-c3cccc(C)c3)nc3ccccn23)c(OC)c1`, with 696 s; and `Cc1ccc(NC(=O)c2nc3ccccc3[nH]c2=O)c(C)c1`, with 778 s; and `C[C@H]1CN(C(=O)NCc2ccccc2)C[C@@H]1c1nc(-c2cccnc2)no1`, with 730 s.
The same measure for `Cc1ccc(Cl)cc1N1CCN(C(=O)c2[nH]c(C)c(S(=O)(=O)N3CCOCC3)c2C)CC1`: 984 s; for `COc1ccc(-c2[nH]ncc2CN2CC(F)(F)C[C@H]2CN2CCOCC2)cc1OC`: 594 s.
